From article PMC9974934, “Bifunctional small molecules targeting PD-L1/CXCL12 as dual immunotherapy for cancer treatment” (Signal Transduction and Targeted Therapy, 2023)
Read-outs that look alike come from different tables or passages of the source. Each block holds one molecule with its values, some of them ahead of it.

Legend:
PD-1/PD-L1 interaction = molecular target: T1, PD-1/PD-L1 interaction (Homo sapiens, UniProt Q9NZQ7); assay: PD-1/PD-L1 HTRF assay; type: biochemical; settings: read-out: IC50, anti-PD-1/PD-L1 potency
T1 construct: purchased Cisbio 64ICP01PEG&64ICP01PEH
T1 sequence (Q9NZQ7 19-238 limits assumed): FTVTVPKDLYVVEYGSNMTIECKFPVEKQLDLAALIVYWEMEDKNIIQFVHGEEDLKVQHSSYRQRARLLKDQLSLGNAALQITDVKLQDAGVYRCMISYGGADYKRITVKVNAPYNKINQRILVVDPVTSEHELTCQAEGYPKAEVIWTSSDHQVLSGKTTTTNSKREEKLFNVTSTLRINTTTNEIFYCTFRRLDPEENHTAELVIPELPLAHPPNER

human CXCL12 = molecular target: T2, human CXCL12 (Homo sapiens, UniProt P48061); assay: SPR binding to hCXCL12
T2 construct: purchased Sino Biological Biotics Inc 13511-HNCE-2
T2 sequence (P48061 22-93): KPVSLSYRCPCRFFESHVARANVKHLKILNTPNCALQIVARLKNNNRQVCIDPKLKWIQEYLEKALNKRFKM
Procedure: (§1) SPR, ITC, CD assay. […] SPRi assay was carried out using PlexAray HT.

[1] = tested on: CXCL12-mediated cell migration, THP-1 cells; assay: Transwell chemotaxis test in THP-1 cells; type: cell-based
[2] = tested on: CXCL12-mediated Ca2+ cellular responses in THP-1 cells; assay: Calcium flux assay in THP-1 cells; type: cell-based; settings: spectrofluorometry
Procedure: Calcium flux assays. THP-1 cells were incubated with Fluo-4AM (Invitrogen, catalog number: F14201) calcium-dependent fluorophore for 0.5 h, washed and resuspended. […] Ca^2+ flux was measured (Ex = 488 nm; Em = 520 nm).

[3] = Serum biochemistry for liver and kidney function; type: in vivo, mouse; settings: mice
[4] = H&E staining of mice organs; type: in vivo, mouse
B16-F10 melanoma tumors = assay: In vivo efficacy in B16-F10 melanoma model; settings: mouse B16-F10 model
Source text: (§2) In vivo efficacy study in a melanoma model and CT26 tumor model. Protocols for animal experiments (B16-F10 and CT-26 tumor model) were approved by the NIACEC (National Institutional Animal Care & Ethical Committee) at SMU (Southern Medical University). C57BL/6 male mice (6-8 weeks old) were purchased from Liaoning Changsheng Biosciences. Briefly, A total of 2×10^5 B16-F10 melanoma cells or CT26 cells (1×10^6) were inoculated into mouse (in the right flank) according to protocols of tumor transplantation studies in mice. […] Tumor volume was measured with a traceable electronic digital caliper (every 2 days).

[5] = tested on: HepG2 cells co-cultured with Jurkat T cells; assay: HepG2 cell mortality in Jurkat T & HepG2 co-culture model; type: cell-based; settings: CCK-8
Procedure: Assessment of HepG2 cell mortality rate (Cellular). Firstly, HepG2 cells were stimulated with human IFN-γ (Peprotech, catalog number: 300-02) to express hPD-L1 stably. Jurkat T cells were stimulated with PHA-P (Invivogen, catalog number: inh-phap). Then, HepG2 (5×10^4) and Jurkat T cells (5×10^4) were added to the co-cultured model. […] Finally, the Jurkat T cells were completely removed by washing the supernatant (200 μL) with cold PBS for 4 times. The mortality rate of HepG2 cells was determined by CCK-8 assay (Dojindo, CCK8, 500 test).

[6] = Creatine kinase isoenzyme assay; type: in vivo, mouse; settings: mice
[7] = Pharmacokinetic study in male SD rats; type: in vivo, rat; settings: for MRT last: read-out: MRT(0–t); for MRT inf: read-out: MRT(0–∞)
Procedure: Pharmacokinetic Study in Male SD Rats. Male SD rats (300–360 g) were purchased from Liaoning Changsheng Biotechnology Co., Ltd. Diet. […] The mobile phase consisted of a mixture of solvent A (acetonitrile) and solvent B (formic acid/ ultrapure water, 1:1000, v/v). The linear gradient program for the mobile phase was set as follows: 0 min 10% A; 0.5 min 30% A; 1 min 95% A; 2 min 95% A; 2.3 min 10% A. The flow rate of the mobile phase was 0.4 mL/min, and the injection volume was 2 μL. The XEVO TQD triple quadrupole mass spectrometer was equipped with an electrospray ionization (ESI) source; multiple reaction monitoring (MRM) mode was selected for quantitation. The Mass Lynx 4.1 software (Waters Corp.) was used for data acquisition. Mass spectral data were obtained in positive electrospray mode (ESI+) in MRM mode.

murine CXCL12 = molecular target: T3, murine CXCL12 (Mus musculus, UniProt P40224); assay: SPR binding to mCXCL12
T3 construct: purchased Sino Biological Biotics Inc 50025-MNAE-2
T3 sequence (P40224 22-93): as the sequence (P48061 22-93) above, with V18I, F70L counted along it
Procedure: as §1

[8] = tested on: CT-26 colon syngeneic tumor; assay: In vivo efficacy in CT-26 colon syngeneic tumor model; set-up: species or system mouse; settings: 75 mg/kg for 17 days
Source text: as §2
Figure. […] Then, sacrificed and tumors weights and volumes were measured. (A) Images of tumors and weight of tumors; (B) changes of body weights of mice during treatment; (C) Individual tumor growth curves over time (D) changes of tumor volume during treatment. *P < 0.05, **P < 0.01, and ****P < 0.0001 (n=3).

[9] = rat, plasma, iv, I.V. 1 mg/kg, mean ± SD
[10] = rat, plasma, po, P.O. 18 mg/kg, mean ± SD

- IC50 (PD-1/PD-L1 interaction): > 1000 nM
Structure (SMILES): COc1ccc(C(=O)/C=C/c2ccc(OCc3ccc(CNC(=O)CCCCNC(=O)C4CCCCN4Cc4ccc(OCc5cccc(-c6ccccc6)c5C)c(Br)c4)cc3)c(OC)c2)cc1 (centres unmarked) [CP1]

- IC50 (PD-1/PD-L1 interaction): > 1000 nM
- melting point: 124.8 to 125.9 °C
Structure (SMILES): COc1ccc(C(=O)/C=C/c2ccc(OCc3ccc(CNC(=O)C4CCCCN4Cc4ccc(OCc5cccc(-c6ccccc6)c5C)c(Br)c4)cc3)c(OC)c2)cc1 (centres unmarked) [CP2]

- IC50 (PD-1/PD-L1 interaction): > 1000 nM
Structure (SMILES): COc1ccc(C(=O)/C=C/c2ccc(OCc3ccc(CNC(=O)C4CCN(C(=O)C5CCCCN5Cc5ccc(OCc6cccc(-c7ccccc7)c6C)c(Br)c5)CC4)cc3)c(OC)c2)cc1 (centres unmarked) [CP3]

- IC50 (PD-1/PD-L1 interaction): > 1000 nM
Structure (SMILES): COc1ccc(C(=O)/C=C/c2ccc(OCc3ccc(CNC(=O)CCCNC(=O)C4CCCCN4Cc4ccc(OCc5cccc(-c6ccccc6)c5C)c(Br)c4)cc3)c(OC)c2)cc1 (centres unmarked) [CP4]

- IC50 (PD-1/PD-L1 interaction): > 1000 nM
Structure (SMILES): COc1ccc(C(=O)/C=C/c2ccc(OCc3ccc(CNC(=O)CCNC(=O)C4CCCCN4Cc4ccc(OCc5cccc(-c6ccccc6)c5C)c(Br)c4)cc3)c(OC)c2)cc1 (centres unmarked) [CP5]

- IC50 (PD-1/PD-L1 interaction): > 1000 nM
Structure (SMILES): COc1ccc(C(=O)/C=C/c2ccc(OCc3ccc(CNC(=O)C4CCCCN4Cc4cc(Cl)c(OCc5cccc(-c6ccccc6)c5C)cc4OCc4ccc(OC(F)(F)F)cc4)cc3)c(OC)c2)cc1 (centres unmarked) [CP6]

- IC50 (PD-1/PD-L1 interaction): > 1000 nM
Structure (SMILES): COc1ccc(C(=O)/C=C/c2ccc(OCc3ccc(CNC(=O)C4CCN(C(=O)C5CCCCN5Cc5cc(Cl)c(OCc6cccc(-c7ccccc7)c6C)cc5OCc5ccc(OC(F)(F)F)cc5)CC4)cc3)c(OC)c2)cc1 (centres unmarked) [CP7]

- IC50 (PD-1/PD-L1 interaction): > 1000 nM
Structure (SMILES): COc1ccc(C(=O)/C=C/c2ccc(OCc3ccc(CNC(=O)CCCNC(=O)C4CCCCN4Cc4cc(Cl)c(OCc5cccc(-c6ccccc6)c5C)cc4OCc4ccc(OC(F)(F)F)cc4)cc3)c(OC)c2)cc1 (centres unmarked) [CP8]

- IC50 (PD-1/PD-L1 interaction): 101 nM
Structure (SMILES): COc1ccc(C(=O)/C=C/c2ccc(OCc3ccc(CNC(=O)CCCNC(=O)C(C)(C)NCc4cc(Cl)c(OCc5cccc(-c6ccccc6)c5C)cc4OCc4cccc(C#N)c4)cc3)c(OC)c2)cc1 [CP9]

- IC50 (PD-1/PD-L1 interaction): > 1000 nM
Structure (SMILES): COc1ccc(C(=O)/C=C/c2ccc(OCc3ccc(CNC(=O)C(C)(C)NCc4cc(Cl)c(OCc5cccc(-c6ccccc6)c5C)cc4OCc4cccc(C#N)c4)cc3)c(OC)c2)cc1 [CP10]

- IC50 (PD-1/PD-L1 interaction): 870 nM
Structure (SMILES): COc1ccc(C(=O)/C=C/c2ccc(OCc3ccc(CNC(=O)CCNC(=O)C(C)(C)NCc4cc(Cl)c(OCc5cccc(-c6ccccc6)c5C)cc4OCc4cccc(C#N)c4)cc3)c(OC)c2)cc1 [CP11]

- IC50 (PD-1/PD-L1 interaction): > 1000 nM
Structure (SMILES): COc1ccc(C(=O)/C=C/c2ccc(OCc3ccc(CNC(=O)CCCCNC(=O)C(C)(C)NCc4cc(Cl)c(OCc5cccc(-c6ccccc6)c5C)cc4OCc4cccc(C#N)c4)cc3)c(OC)c2)cc1 [CP12]

- IC50 (PD-1/PD-L1 interaction): > 1000 nM
Structure (SMILES): CCOC(=O)COc1cc(OCc2cccc(-c3ccccc3)c2C)c(Cl)cc1CN1CCCCC1C(=O)NCCC(=O)NCc1ccc(COc2ccc(/C=C/C(=O)c3ccc(OC)cc3)cc2OC)cc1 (centres unmarked) [CP13]

- IC50 (PD-1/PD-L1 interaction): > 1000 nM
Structure (SMILES): CCOC(=O)COc1cc(OCc2cccc(-c3ccccc3)c2C)c(Cl)cc1CN1CCCCC1C(=O)NCc1ccc(COc2ccc(/C=C/C(=O)c3ccc(OC)cc3)cc2OC)cc1 (centres unmarked) [CP14]

- IC50 (PD-1/PD-L1 interaction): > 1000 nM
Structure (SMILES): CCOC(=O)COc1cc(OCc2cccc(-c3ccccc3)c2C)c(Cl)cc1CN1CCCCC1C(=O)N1CCC(C(=O)NCc2ccc(COc3ccc(/C=C/C(=O)c4ccc(OC)cc4)cc3OC)cc2)CC1 (centres unmarked) [CP15]

- IC50 (PD-1/PD-L1 interaction): > 1000 nM
Structure (SMILES): CCOC(=O)COc1cc(OCc2cccc(-c3ccccc3)c2C)c(Cl)cc1CN1CCCCC1C(=O)NCCCC(=O)NCc1ccc(COc2ccc(/C=C/C(=O)c3ccc(OC)cc3)cc2OC)cc1 (centres unmarked) [CP16]

- IC50 (PD-1/PD-L1 interaction): 126 nM
- melting point: 128.1 to 128.9 °C
Structure (SMILES): COc1ccc(C(=O)/C=C/c2ccc(OCc3ccc(CNC(=O)C4CCCCN4Cc4cc(Cl)c(OCc5cccc(-c6ccccc6)c5C)cc4OCc4cccc(C#N)c4)cc3)c(OC)c2)cc1 (centres unmarked) [CP17]

- IC50 (PD-1/PD-L1 interaction): 107 nM
- melting point: 120.1 to 120.9 °C
Structure (SMILES): COc1ccc(C(=O)/C=C/c2ccc(OCc3ccc(CNC(=O)CCCNC(=O)C4CCCCN4Cc4cc(Cl)c(OCc5cccc(-c6ccccc6)c5C)cc4OCc4cccc(C#N)c4)cc3)c(OC)c2)cc1 (centres unmarked) [CP18]

- IC50 (PD-1/PD-L1 interaction): > 1000 nM
Structure (SMILES): COc1ccc(C(=O)/C=C/c2ccc(OCc3ccc(CNC(=O)CCCCNC(=O)C4CCCCN4Cc4cc(Cl)c(OCc5cccc(-c6ccccc6)c5C)cc4OCc4cccc(C#N)c4)cc3)c(OC)c2)cc1 (centres unmarked) [CP19]

- IC50 (PD-1/PD-L1 interaction): 88.5 nM
Structure (SMILES): COc1ccc(C(=O)/C=C/c2ccc(OCc3ccc(CNC(=O)CCNC(=O)C4CCCCN4Cc4cc(Cl)c(OCc5cccc(-c6ccccc6)c5C)cc4OCc4cccc(C#N)c4)cc3)c(OC)c2)cc1 (centres unmarked) [CP20]

Structure (SMILES): COc1ccc(C(=O)/C=C/c2ccc(OCc3ccc(CNC(=O)C4CCN(C(=O)C5CCCCN5Cc5cc(Cl)c(OCc6cccc(-c7ccccc7)c6C)cc5OCc5cccc(C#N)c5)CC4)cc3)c(OC)c2)cc1 (centres unmarked) [CP21]
- Kd (human CXCL12): 160 nM
- CXCL12-mediated cell migration [1]: dose-dependently inhibited
- CXCL12-induced calcium responses [2]: dose-dependently inhibited
- Hepatotoxicity and nephrotoxicity (serum biochemistry) [3]: did not induce hepatotoxicity and nephrotoxicity
- Morphological aberration of organs (H&E staining) [4]: no apparent morphological aberration
- Body weights of mice during treatment (B16-F10 melanoma tumors): did not change markedly
- Tumor weights and volumes (B16-F10 melanoma tumors; 75 and 125 mg/kg): dose-dependently decreased
- Tumor growth inhibition (TGI) (B16-F10 melanoma tumors; oral 125 mg/kg): 58.5%
- Death of HepG2 cells [5]: dose-dependently promoted
- Cardiotoxicity (creatine kinase isoenzyme assay) [6]: did not cause cardiotoxicity
- CL ([7]; P.O. 18 mg/kg, mean ± SD): 2347 ± 83.3 mL/min/kg
- Vz ([7]; P.O. 18 mg/kg, mean ± SD): 467.4 ± 184.8 L/kg
- Tmax ([7]; rat, plasma, iv, I.V. 1 mg/kg): 0.083 h
- AUC(0-inf) [7, 9]: 2138 ± 18.3 ng·h/mL
- AUC(0-t) [7, 9]: 2032 ± 11.4 ng·h/mL
- Cmax [7, 9]: 326 ± 58.1 ng/mL
- clearance [7, 9]: 8.33 mL/min/kg
- half-life [7, 9]: 12.4 ± 0.3 h
- MRT last [7, 9]: 11.3 ± 0.4 h
- MRT inf [7, 9]: 14 ± 0.5 h
- Vd ([7]; rat, plasma, iv, I.V. 1 mg/kg, mean ± SD, read-out: Vz): 8.4 ± 0.2 L/kg
- AUC(0-inf) [7, 10]: 128 ± 4.6 ng·h/mL
- AUC(0-t) [7, 10]: 128 ± 4.8 ng·h/mL
- Cmax [7, 10]: 20.5 ± 3.1 ng/mL
- Tmax [7, 10]: 6.3 ± 0.8 h
- half-life [7, 10]: 2.2 ± 0.8 h
- MRT last [7, 10]: 5.9 ± 0.2 h
- MRT inf [7, 10]: 6 ± 0.2 h
- Kd (murine CXCL12): 76.5 nM
- In vivo antitumor efficacy [8]: similarly high in vivo antitumor efficacy
